Legend:
P2Y purinoceptor 14 = target: T1, P2Y purinoceptor 14 (Homo sapiens, UniProt Q15391); experiment: Agonist activity at human P2Y14 receptor expressed in […] cells; type: functional, cell-based, COS-7
T1 sequence (Q15391 whole entry): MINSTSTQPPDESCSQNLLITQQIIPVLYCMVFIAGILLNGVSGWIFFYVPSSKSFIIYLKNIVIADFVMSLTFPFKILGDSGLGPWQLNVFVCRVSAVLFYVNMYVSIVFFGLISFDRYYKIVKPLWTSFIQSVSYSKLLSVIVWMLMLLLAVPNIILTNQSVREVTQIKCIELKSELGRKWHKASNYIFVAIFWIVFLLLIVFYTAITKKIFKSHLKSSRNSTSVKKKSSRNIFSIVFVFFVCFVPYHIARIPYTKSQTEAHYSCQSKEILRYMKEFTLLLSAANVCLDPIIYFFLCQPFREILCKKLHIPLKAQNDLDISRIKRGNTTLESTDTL

[1] = target: T2, P2Y purinoceptor 14 (Homo sapiens) (UniProt Q15391); experiment: Agonist activity at human P2Y14 receptor expressed in […] cells at 10 uM; type: functional, cell-based; conditions: COS-7
T2 sequence (whole entry): T1 sequence (Q15391 whole entry)

SMILES	EC50 (P2Y purinoceptor 14) [nM]	Efficacy [1] [%]
O=c1ccn([C@@H]2O[C@H](COP(=O)(O)OP(=O)(O)O[C@H]3O[C@H](CO)[C@@H](O)[C@H](F)[C@H]3O)[C@@H](O)[C@H]2O)c(=O)[nH]1	361	
O=c1ccn([C@@H]2O[C@H](COP(=O)(O)OP(=O)(O)O[C@@H]3[C@H](O)[C@H](O)[C@@H](O)[C@H](O)[C@H]3O)[C@@H](O)[C@H]2O)c(=O)[nH]1	1880	
CO/N=c1/ccn([C@@H]2O[C@H](COP(=O)(O)OP(=O)(O)O[C@H]3O[C@H](CO)[C@@H](O)[C@H](O)[C@H]3O)[C@@H](O)[C@H]2O)c(=O)[nH]1		< 50
O=c1[nH]c(=S)ccn1[C@@H]1O[C@H](COP(=O)(O)OP(=O)(O)O[C@H]2O[C@H](CO)[C@@H](O)[C@H](O)[C@H]2O)[C@@H](O)[C@H]1O	290	
C[C@H]1O[C@H](OP(=O)(O)OP(=O)(O)OC[C@H]2O[C@@H](n3ccc(=O)[nH]c3=O)[C@H](O)[C@@H]2O)[C@H](O)[C@@H](O)[C@H]1O	562	
CC(=O)NCCNC(=O)[C@H]1O[C@H](OP(=O)(O)OP(=O)(O)OC[C@H]2O[C@@H](n3ccc(=O)[nH]c3=O)[C@H](O)[C@@H]2O)[C@H](O)[C@@H](O)[C@@H]1O	496	
O=c1ccn([C@@H]2O[C@H](COP(=O)(O)OP(=O)(O)O[C@H]3O[C@H](CF)[C@@H](O)[C@H](O)[C@H]3O)[C@@H](O)[C@H]2O)c(=O)[nH]1	905	
CC(C)(C)OC(=O)NCCNC(=O)[C@H]1O[C@H](OP(=O)(O)OP(=O)(O)OC[C@H]2O[C@@H](n3ccc(=O)[nH]c3=O)[C@H](O)[C@@H]2O)[C@H](O)[C@@H](O)[C@@H]1O	951	
O=c1ccn([C@@H]2O[C@H](COP(=O)(O)OP(=O)(O)OC[C@H]3O[C@H](O)[C@H](O)[C@@H](O)[C@@H]3O)[C@@H](O)[C@H]2O)c(=O)[nH]1	373	
O=c1ccn([C@@H]2O[C@H](COP(=O)(O)OP(=O)(O)O[C@H]3O[C@H](CO)[C@@H](O)[C@H](O)[C@H]3F)[C@@H](O)[C@H]2O)c(=O)[nH]1	2500	
O=c1ccn([C@@H]2C[C@H](COP(=O)(O)OP(=O)(O)O[C@H]3O[C@H](CO)[C@@H](O)[C@H](O)[C@H]3O)[C@@H](O)[C@H]2O)c(=O)[nH]1		< 20
O=c1ccn([C@@H]2O[C@H](COP(=O)(O)OP(=O)(O)OC[C@H]3O[C@H](O)[C@H](O)[C@@H]3O)[C@@H](O)[C@H]2O)c(=O)[nH]1	238	
O=c1ccn([C@@H]2O[C@H](COP(=O)(O)OP(=O)(O)O[C@H]3O[C@H](CO)[C@@H](F)[C@H](O)[C@H]3O)[C@@H](O)[C@H]2O)c(=O)[nH]1	567	
O=c1ccn([C@@H]2O[C@H](COP(=O)(O)OP(=O)(O)OC[C@H]3O[C@](O)(CO)[C@@H](O)[C@@H]3O)[C@@H](O)[C@H]2O)c(=O)[nH]1	323	
CC(=O)N[C@@H]1[C@@H](O)[C@H](O)[C@@H](CO)O[C@@H]1CP(=O)(O)OP(=O)(O)OC[C@H]1O[C@@H](n2ccc(=O)[nH]c2=O)[C@H](O)[C@@H]1O		< 50
O=c1ccn([C@@H]2O[C@H](COP(=O)(O)OP(=O)(O)OC[C@H]3O[C@H](O)[C@@H](O)[C@@H](O)[C@@H]3O)[C@@H](O)[C@H]2O)c(=O)[nH]1	658	
O=c1ccn([C@@H]2O[C@H](COP(=O)(O)OP(=O)(O)OC[C@H]3O[C@H](O)C[C@@H](O)[C@@H]3O)[C@@H](O)[C@H]2O)c(=O)[nH]1		< 50
O=c1ccn([C@@H]2O[C@H](COP(=O)(O)OP(=O)(O)OC[C@H]3O[C@H](O)[C@@H](O)[C@@H]3O)[C@@H](O)[C@H]2O)c(=O)[nH]1	460	

Source: ChEMBL document CHEMBL1152500, “Molecular recognition in the P2Y(14) receptor: Probing the structurally permissive terminal sugar moiety of uridine-5'-diphosphoglucose” (Bioorg Med Chem, 2009)
